The record followed here is patent publication US9163032B2, “Esters of DCPLA and methods of treatment using the same” (Blanchette Rockefeller Neurosciences Institute, priority 2011, dated 2015).

The target in one data set is PKC-α (Homo sapiens, UniProt P17252). The data set can be described thus: PKC activation assay with purified PKC-α isozyme. In kind it is biochemical. The procedure:
For measurement of PKC activation by DCPLA-ME, activation of recombinant PKC-α, PKC-ε, and PKC-δ was evaluated. DCPLA-ME induced activation was measured in the absence of diacylglycerol (DAG) and phosphatidylserine (PS) as described earlier. See Nelson, T. J. et al., J. Biol. Chem., 2009, 284: 34514-34521, and Kanno, T. et al., J. Cell Physiol., 2009, 221: 183-188. Individual enzymes were incubated for 15 min at 37° C. in the presence of 10 μM histones, 4.89 mM CaCl2, 10 mM MgCl2, 20 mM HEPES (pH 7.4), 0.8 mM EDTA, 4 mM EGTA, 4% glycerol, 8 μg/ml aprotinin, 8 μg/ml leupeptin, 2 mM benzamidine, and 0.5 μCi of [γ-^32P]ATP. Purified PKC-α, PKC-ε and PKC-δ were preincubated with DCPLA-ME for 5 min at room temperature. [^32P]-Phosphoprotein formation was measured by adsorption onto phosphocellulose.
To measure PKC, 10 μl of cell homogenate or purified PKC isozyme was incubated for 15 min at 37° C. in the presence of 10 μM histones, 4.89 mM CaCl2, 1.2 μg/μl phosphatidyl-L-serine, 0.18 μg/μl 1,2-dioctanoyl-sn-glycerol, 10 mM MgCl2, 20 mM HEPES (pH 7.4), 0.8 mM EDTA, 4 mM EGTA, 4% glycerol, 8 μg/ml aprotinin, 8 μg/ml leupeptin, and 2 mM benzamidine. [γ32P]ATP (0.5 μCi) was added and 32P-phosphoprotein formation was measured by adsorption onto phosphocellulose as described previously. […]
PKC activity of each compound was measured in the absence of diacylglycerol and phosphatidyl-L-serine and PKC-δ and PKC-ε were measured in the absence of added EGTA and CaCl2, as described by Kanno et al., J. Lipid Res., 2006, 47: 1146-1156. […] To determine their PKC isozyme specificity, the compounds were pre-incubated with purified isoforms of PKC for five minutes and the PKC activity was measured radiometrically.
The activation and PKC isozyme specificity of DCPLA-ethyl ester was measured following the procedures in Example 1(B) and (C), except that 9 ng of the purified isozyme was used and it was pre-incubated for 5 minutes at room temperature (FIG. 3). PKC-ε activation by DCPLA-tert-butyl ester and DCPLA-retinyl ester was measured in the same manner as DCPLA-ethyl ester (FIG. 3).

The next data set relates to PKC-ε mRNA. The data set can be described thus: PKC-ε mRNA by RT-PCR in primary neurons. It counts as cell-based, rat. The following applies: primary neurons treated with ASPD and/or DCPLA-ME, normalized to β-actin. The procedure: RNA was isolated from the cells using Trizol reagent (Invitrogen, USA) following the manufacturer's protocol. Briefly, 5 μg of the total RNA was reverse transcribed using oligo (dT) and Superscript III (Invitrogen, USA) at 50° C. for 1 hr. Two μl of the cDNA product was amplified using primers for PKC-ε (Forward Primer—[…], Reverse primer—[…] (Origene, Rockville, Md.)) and β-actin (Promega, USA) for 30 cycles following standard PCR protocols using a 55° C. annealing temperature. The PCR amplicons were analyzed in an E-Gel (Invitrogen, USA). The gel was imaged using a Fuji Image gel scanner (FLA-9000, Fuji Film) and densitometric quantification was performed using IMAL software (Blanchette Rockefeller Neurosciences Institute, Morgantown, W. Va.). Data were represented as normalized ratio of PKC-ε OD (Optical Density) against β-actin OD for three independent experiments.
Primary neurons were treated with ASPD and/or DCPLA-ME. PKC-ε mRNA was quantified by RT-PCR as described above. RNA prepared from control and treated cultured primary rat hippocampal neurons were isolated and reverse transcribed. Individual cDNA was amplified for PKC-ε and β-actin. PKC-ε expression was normalized to β-actin.

Another data set deals with Wistar rats. The data set can be described thus: Visible platform test (sensorimotor activity and escape motivation). It counts as in vivo, rat. As to conditions: oral DCPLA-ME 5.3 or 16.0 mg/kg. The method, then:
Water maze spatial learning and memory task (2 training trials/day for 4 days) was used to evaluate effects of oral DCPLA-ME on learning and memory in rats. A visible platform test was conducted after the end of the experiments to evaluate whether the treatment might result in an altered sensorimotor activity and escape motivation.
At the end of the experiments, the rats were also tested in a visible platform test to evaluate whether the treatment might result in an altered sensorimotor activity and escape motivation.

The subject of data set [1] is differentiated human SH-SY5Y cells. The data set can be described thus: Neuroprotection against ASPD, MTT assay, differentiated SH-SY5Y cells. It counts as cell-based. As to conditions: ASPD alone, compared to untreated cells. The method, then: For differentiation, SH-SY5Y cells were maintained in medium containing 2% serum and treated with 10 μM all-trans-retinoic acid (RA) for 72 hr. Thereafter, the cells were treated with 0.27 nM Bryostatin 1 for 72 hrs. The medium was changed every 3 days with fresh supplementation of RA.
Viability of cells was measured by MTT assay. MTT (i.e., 3-(4,5-dimethylthiazol-2-yl)-2,5-diphenyltetrazolium bromide) is a tetrazolium salt that is cleaved to formazan by the succinate dehydrogenase, which is only active in viable cells. After solubilization of the formazan, the amount of dye can be quantified with a microplate reader at 570 nm along with a reference of 630 nm. For the MTT assay, 5×10^4 primary rat hippocampal neurons from 18-day-old embryonic Sprague-Dawley rat brains or SH-SY5Y cells were plated on each well of 24-well plates coated with poly-D-lysine. After treatment, the cells were washed with 1× PBS and were incubated with 200 μl of 1 mg/ml MTT solution (Sigma, USA) at 37° C. for 2 hr. Then the MTT-solution was removed and the cells were lysed with 200 μl isopropanol containing 0.04 M HCl and […] for 10 min. Finally, the reading was taken at 570 nm and 630 nm. All the samples were done in triplicate and the data were represented as the percentage of control.
In ASPD-treated cells, the viability was 77.15±0.49% (p<0.0001, n=6) compared to the untreated cells.

With `CCCCCC1CC1CC1CC1CCCCCCCC(=O)OC` (centres unmarked) [DCPLA-ME, DCPLA methyl ester], the “effect on PKC-α” value on PKC-α is given as “did not have a major effect”. Besides, in the data set with PKC-ε mRNA, the PKC-ε transcript levels result was “increased PKC-ε transcript levels”. In addition, the “sensorimotor ability and escape motivation” value in the data set on Wistar rats is “did not affect rats' sensorimotor ability and motivation for an escape”.

“ASPD: Amylospheroids from Aβ1-42, 100 kDa filter retentate, containing 39 monomers on average”: in data set [1], the “viability of SH-SY5Y cells” value was found to be 77.15±0.49%. The PKC-ε transcript levels result in the data set on PKC-ε mRNA is recorded as “did not change PKC-ε mRNA significantly”.
